Assays:
Assay in all cases: relative viability (nuclei count vs DMSO), 5 days (fraction); higher = more cells survive
[1] = compound: CC(C)(C)c1cc(NC(=O)Nc2ccc(-c3cn4c(n3)sc3cc(OCCN5CCOCC5)ccc34)cc2)no1 [Quizartinib] + CC(=O)c1c(C)c2cnc(Nc3ccc(N4CCNCC4)cn3)nc2n(C2CCCC2)c1=O [Palbociclib] (partner 0.5 µM)
Outline: (§1)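 Dosing by pin tool came one day after lung cancer cell lines were seeded in 1536-well plates, using either one drug or a fixed anchor-drug dose plus five library-drug doses (not always all listed) in √10 steps. After 5 days, nuclei were counted on 4× images. Relative viability is treated-well nuclei count divided by vehicle-well nuclei count, and values are medians of duplicate plates.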

[2] = compound: COCC[n+]1c2c(n(Cc3cnccn3)c1C)C(=O)c1ccccc1C2=O [YM155] + O=C(CCCCCCC(=O)Nc1ccccc1)NO [Vorinostat] (partner 1 µM)
Outline: as §1

[3] = compound: COCC[n+]1c2c(n(Cc3cnccn3)c1C)C(=O)c1ccccc1C2=O [YM155] + CC(C)C[C@H](NC(=O)[C@H](Cc1ccccc1)NC(=O)c1cnccn1)B(O)O [Bortezomib] (partner 0.002 µM)
Outline: as §1

[4] = compound: CC(C)(C)c1cc(NC(=O)Nc2ccc(-c3cn4c(n3)sc3cc(OCCN5CCOCC5)ccc34)cc2)no1 [Quizartinib] + C[C@@H](Oc1cc(-c2cnn(C3CCNCC3)c2)cnc1N)c1c(Cl)ccc(F)c1Cl [Crizotinib] (partner 1 µM)
Outline: as §1

| Cell Line | relative viability ([1]; first compound 0.001 µM) | relative viability ([1]; first compound 0.003162 µM) | relative viability ([1]; first compound 0.01 µM) | relative viability ([1]; first compound 0.03162 µM) | relative viability ([1]; first compound 0.1 µM) | relative viability ([2]; first compound 0.002 µM) | relative viability ([2]; first compound 0.006325 µM) | relative viability ([2]; first compound 0.02 µM) | relative viability ([2]; first compound 0.06325 µM) | relative viability ([3]; first compound 0.006325 µM) | relative viability ([3]; first compound 0.02 µM) | relative viability ([3]; first compound 0.06325 µM) | relative viability ([4]; first compound 0.001 µM) | relative viability ([4]; first compound 0.003162 µM) | relative viability ([4]; first compound 0.01 µM) | relative viability ([4]; first compound 0.03162 µM) | relative viability ([4]; first compound 0.1 µM) | relative viability ([3]; first compound 0.002 µM) |
| --- | --- | --- | --- | --- | --- | --- | --- | --- | --- | --- | --- | --- | --- | --- | --- | --- | --- | --- |
| NCI-H2342 | 0.482 | 0.538 | 0.483 | 0.615 | 0.462 | 0.717 | 0.724 | 0.705 | 0.704 | – | – | – | – | – | – | – | – | – |
| CAL-12T | 0.362 | 0.404 | 0.607 | 0.348 | 0.0629 | 0.624 | 0.723 | 0.623 | 0.412 | 1.04 | 1.29 | 0.895 | 0.652 | 0.662 | 0.724 | 0.202 | 0.696 | – |
| NCI-H1395 | 0.549 | 0.573 | 0.668 | 0.591 | 0.598 | 0.691 | 0.727 | 0.864 | 0.696 | – | – | – | – | – | – | – | – | – |
| NCI-H1299 | – | – | – | – | – | – | – | – | – | 1.01 | 1 | 1 | 0.92 | 0.949 | 1.01 | 0.928 | 0.956 | 1.02 |
| NCI-H1703 | – | – | – | – | – | – | – | – | – | 0.323 | 0.322 | 0.198 | 0.791 | 0.718 | 0.219 | 0.136 | 0.335 | 0.283 |
| HCC-15 | 0.651 | 0.751 | 0.72 | 0.734 | 0.753 | 0.851 | 0.836 | 0.872 | 0.881 | 1.02 | 0.965 | 0.953 | 0.798 | 0.79 | 0.817 | 0.802 | 0.81 | 0.939 |
| SW 900 | 0.507 | 0.547 | 0.63 | 0.541 | 0.558 | – | 0.465 | 0.582 | 0.408 | – | – | – | – | – | – | – | – | – |
| NCI-H661 | 0.369 | 0.348 | 0.391 | 0.384 | 0.339 | 0.765 | 0.784 | 0.883 | 0.364 | 0.983 | 0.835 | 0.848 | 0.905 | 0.998 | 1.07 | – | 0.856 | 0.894 |
| NCI-H647 | 0.371 | 0.348 | 0.413 | 0.403 | 0.511 | 0.472 | 0.484 | 0.755 | 0.388 | 1 | 0.826 | 0.792 | 0.9 | 0.948 | 1.31 | 1.06 | 0.847 | 0.777 |
| H3255 | 0.318 | 0.358 | 0.329 | 0.305 | 0.309 | 0.729 | 0.78 | 0.776 | 0.671 | 0.719 | 0.858 | 0.693 | 0.736 | 0.86 | 1 | 0.834 | 0.868 | 0.711 |
| NCI-H2405 | 0.499 | 0.519 | 0.584 | 0.528 | 0.556 | 0.973 | 0.964 | 0.917 | 0.533 | 1.01 | 0.971 | 0.701 | 0.791 | 0.89 | 0.946 | 0.803 | 0.925 | 0.951 |
| NCI-H1666 | 0.618 | 0.66 | 0.683 | 0.638 | 0.637 | 0.923 | 1.11 | 1.03 | 1.03 | – | 0.815 | 0.718 | 0.917 | 0.829 | 1.07 | 0.777 | 0.974 | 0.644 |
| NCI-H650 | 0.355 | 0.309 | 0.361 | 0.336 | 0.355 | 0.364 | 0.491 | 0.5 | 0.312 | 0.771 | 1.08 | 0.871 | 0.684 | 0.525 | 0.772 | 0.628 | 0.749 | 1.02 |
| COR-L23 | 0.236 | 0.269 | 0.34 | 0.244 | 0.244 | 0.434 | 0.501 | 0.274 | 0.125 | 0.929 | 0.617 | 0.362 | 0.573 | 0.538 | 0.753 | 0.51 | 0.67 | 0.923 |
| NCI-H1734 | 0.277 | 0.338 | 0.349 | 0.341 | 0.347 | 0.826 | 0.799 | 0.891 | 0.84 | 0.818 | 1.04 | 0.99 | 0.582 | 0.656 | 0.854 | 0.602 | 0.549 | 1 |
| UMC-11 | – | 0.333 | 0.339 | 0.321 | 0.317 | 0.392 | 0.35 | 0.377 | 0.343 | 0.557 | 0.719 | 0.667 | 0.543 | 0.562 | 0.739 | 0.66 | 0.577 | 0.692 |
| NCI-H596 | – | – | – | – | – | 0.554 | 0.468 | 0.676 | 0.551 | 1.18 | 0.946 | 1.19 | 0.971 | 1 | 1.09 | 0.932 | 0.761 | – |

— the supplement of paper PMC10307832
